The source made the active and inactive calls.
What was measured:
Hexokinase = Hexokinase (Trypanosoma brucei, UniProt Q38C41); assay: Confirmation assay for inhibitors of Trypanosoma brucei hexokinase 1-Analogue-first series. [Related pubchem assays (depositor defined):AID1430, AID1632, AID2516, AID2560, AID2579, AID2600, AID449725, AID492951]; assay type: functional
[1] = HepG2 cell cytotoxicity, dose response, cytotoxicity control for non-replicating M. tuberculosis project (AID 489018); assay type: functional; details: Mycobacterium tuberculosis
[2] = biological target: T1, Ubiquitin-conjugating enzyme E2 N (Homo sapiens, UniProt P61088); assay type: functional;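 further: Dose-response confirmation in a TR-FRET assay detecting UBC13-driven polyubiquitin chain formation, inhibition measured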
T1 sequence (P61088 whole entry): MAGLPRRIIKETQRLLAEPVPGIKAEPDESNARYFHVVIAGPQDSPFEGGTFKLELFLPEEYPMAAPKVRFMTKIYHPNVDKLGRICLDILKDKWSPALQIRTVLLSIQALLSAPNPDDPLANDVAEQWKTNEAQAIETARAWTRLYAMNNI

[3] = Vero E6 cell cytotoxicity, dose response, cytotoxicity control for non-replicating M. tuberculosis project, secondary assay (AID 492998); assay type: functional, VeroE6; details: Vero C1008
[4] = THP-1 cell cytotoxicity, dose response, cytotoxicity control for non-replicating M. tuberculosis project (AID 489025); assay type: functional
[5] = Luminescence Cell-Based Dose Retest to Confirm Inhibitors of Cancer Stem Cells. [Related pubchem assays (depositor defined):AID2717, AID2721]; assay type: functional; details: Homo sapiens
cells = assay type: functional
X-box-binding protein 1 = X-box-binding protein 1 (Homo sapiens, UniProt P17861); assay type: functional, Cricetulus griseus;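 further: confirmatory dose-response counter-screen serving a CHOP assay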
Sequence of X-box-binding protein 1 (P17861 whole entry): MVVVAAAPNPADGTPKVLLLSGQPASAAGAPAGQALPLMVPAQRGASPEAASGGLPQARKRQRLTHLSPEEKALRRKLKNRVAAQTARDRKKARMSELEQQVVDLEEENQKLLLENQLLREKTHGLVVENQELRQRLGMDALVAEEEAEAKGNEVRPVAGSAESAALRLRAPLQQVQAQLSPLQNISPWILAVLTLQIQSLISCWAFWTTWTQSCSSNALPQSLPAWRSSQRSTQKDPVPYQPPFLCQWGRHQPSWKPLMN

[6] = biological target: DNA damage-inducible transcript 3 protein (Mus musculus, UniProt P35639); assay type: functional, Cricetulus griseus
Sequence of DNA damage-inducible transcript 3 protein (P35639 whole entry): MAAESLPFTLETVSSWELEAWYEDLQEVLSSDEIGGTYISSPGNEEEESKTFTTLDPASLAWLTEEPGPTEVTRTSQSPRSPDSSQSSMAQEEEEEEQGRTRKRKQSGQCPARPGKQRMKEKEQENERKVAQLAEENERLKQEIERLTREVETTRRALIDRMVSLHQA

CAAX prenyl protease 2 = CAAX prenyl protease 2 (Saccharomyces cerevisiae S288c, UniProt Q03530); assay type: biochemical
Sequence of CAAX prenyl protease 2 (Q03530 whole entry, the tested form may be a part): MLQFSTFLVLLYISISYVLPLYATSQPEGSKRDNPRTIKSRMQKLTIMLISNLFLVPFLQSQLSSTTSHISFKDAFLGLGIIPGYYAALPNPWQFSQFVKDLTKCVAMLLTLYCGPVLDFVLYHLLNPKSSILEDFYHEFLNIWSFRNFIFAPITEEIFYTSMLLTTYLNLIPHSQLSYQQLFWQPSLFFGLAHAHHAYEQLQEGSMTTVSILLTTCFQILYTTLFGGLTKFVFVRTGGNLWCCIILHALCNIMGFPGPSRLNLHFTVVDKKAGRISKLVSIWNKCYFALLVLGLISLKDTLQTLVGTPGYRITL

[7] = biological target: T2, Runt-related transcription factor 1/Core-binding factor subunit beta (Homo sapiens, UniProt Q01196+Q13951); assay: Runt domain/CBFb-SMMHC interaction disruptors – biochemical, TR-FRET (AID 1438); assay type: protein assay
T2 sequence (Q01196 whole entry, the tested form may be a part): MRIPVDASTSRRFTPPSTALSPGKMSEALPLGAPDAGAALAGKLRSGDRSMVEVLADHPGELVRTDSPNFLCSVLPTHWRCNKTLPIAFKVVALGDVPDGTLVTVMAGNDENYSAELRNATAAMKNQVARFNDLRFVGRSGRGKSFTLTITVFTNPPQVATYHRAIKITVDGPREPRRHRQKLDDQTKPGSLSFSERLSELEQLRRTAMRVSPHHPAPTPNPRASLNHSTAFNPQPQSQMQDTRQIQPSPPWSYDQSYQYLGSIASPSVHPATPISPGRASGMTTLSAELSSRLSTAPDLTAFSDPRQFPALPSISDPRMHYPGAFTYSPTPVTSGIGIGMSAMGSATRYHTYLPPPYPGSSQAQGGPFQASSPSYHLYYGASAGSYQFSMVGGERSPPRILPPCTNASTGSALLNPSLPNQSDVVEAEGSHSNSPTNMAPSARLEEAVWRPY
T2 sequence (Q13951 whole entry, the tested form may be a part): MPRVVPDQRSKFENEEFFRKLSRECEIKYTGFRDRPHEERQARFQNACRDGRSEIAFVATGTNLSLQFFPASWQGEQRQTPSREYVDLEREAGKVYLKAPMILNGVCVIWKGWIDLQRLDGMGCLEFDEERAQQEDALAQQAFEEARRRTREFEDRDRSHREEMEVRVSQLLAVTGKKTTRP

[8] = biological target: T2, Runt-related transcription factor 1/Core-binding factor subunit beta; assay: disruptors of Runt domain/CBFb-SMMHC interaction – biochemical, FRET, Cerulean-Runt, Venus-CBFb-SMMHC, uHTS, […] (AID 1434); assay type: protein assay
Cytochrome P450 2C9 = Cytochrome P450 2C9 (Homo sapiens, UniProt P11712)
Sequence of Cytochrome P450 2C9 (P11712 whole entry, the tested form may be a part): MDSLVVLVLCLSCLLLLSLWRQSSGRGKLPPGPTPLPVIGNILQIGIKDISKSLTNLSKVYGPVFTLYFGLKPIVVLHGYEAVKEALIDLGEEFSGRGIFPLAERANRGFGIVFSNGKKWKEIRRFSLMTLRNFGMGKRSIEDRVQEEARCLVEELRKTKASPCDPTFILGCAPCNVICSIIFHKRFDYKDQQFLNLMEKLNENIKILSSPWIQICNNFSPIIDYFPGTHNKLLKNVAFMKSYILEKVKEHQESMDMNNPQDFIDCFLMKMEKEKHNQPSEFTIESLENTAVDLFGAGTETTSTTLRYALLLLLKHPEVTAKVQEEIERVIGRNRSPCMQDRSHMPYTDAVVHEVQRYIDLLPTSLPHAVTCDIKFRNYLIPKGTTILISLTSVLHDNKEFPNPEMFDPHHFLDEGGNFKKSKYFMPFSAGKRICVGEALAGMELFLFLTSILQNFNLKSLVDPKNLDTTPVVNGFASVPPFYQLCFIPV

[9] = biological target: T3, Type-1 angiotensin II receptor (Homo sapiens, UniProt P30556); assay: agonist activity at AGTR1 – cell-based, uHTS hits, selectivity assay for APJ receptor agonist project, dose response (AID 488865); assay type: functional;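 further: beta-arrestin recruitment to AT1 measured by enzyme fragment complementation luminescence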
T3 sequence (P30556 whole entry): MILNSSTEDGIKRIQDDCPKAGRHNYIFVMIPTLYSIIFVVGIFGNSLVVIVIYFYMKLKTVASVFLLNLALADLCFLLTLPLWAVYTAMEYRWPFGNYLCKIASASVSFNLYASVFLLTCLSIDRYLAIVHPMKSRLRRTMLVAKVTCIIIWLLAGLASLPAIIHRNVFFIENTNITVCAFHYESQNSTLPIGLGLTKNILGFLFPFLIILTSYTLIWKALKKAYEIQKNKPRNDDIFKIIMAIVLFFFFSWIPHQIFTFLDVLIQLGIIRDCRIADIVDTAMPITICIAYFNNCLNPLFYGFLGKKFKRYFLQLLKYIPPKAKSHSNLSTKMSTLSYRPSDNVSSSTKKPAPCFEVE

[10] = biological target: Glyceraldehyde-3-phosphate dehydrogenase (Homo sapiens, UniProt P04406)
Sequence of Glyceraldehyde-3-phosphate dehydrogenase (P04406 whole entry): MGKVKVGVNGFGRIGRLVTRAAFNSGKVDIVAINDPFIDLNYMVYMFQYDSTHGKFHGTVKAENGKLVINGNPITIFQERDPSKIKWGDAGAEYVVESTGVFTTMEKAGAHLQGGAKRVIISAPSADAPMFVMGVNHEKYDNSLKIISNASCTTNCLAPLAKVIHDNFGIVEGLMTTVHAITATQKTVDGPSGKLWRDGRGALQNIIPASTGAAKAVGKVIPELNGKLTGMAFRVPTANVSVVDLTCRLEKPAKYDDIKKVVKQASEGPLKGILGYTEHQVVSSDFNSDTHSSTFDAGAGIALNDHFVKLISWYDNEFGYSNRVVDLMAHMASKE

[11] = biological target: T4, Alkaline phosphatase, tissue-nonspecific isozyme (Homo sapiens, UniProt P05186); assay: potency against alkaline phosphatase TNAP – biochemical, luminescent, dose response, SAR follow-up (AID 1056)
T4 sequence (P05186 whole entry): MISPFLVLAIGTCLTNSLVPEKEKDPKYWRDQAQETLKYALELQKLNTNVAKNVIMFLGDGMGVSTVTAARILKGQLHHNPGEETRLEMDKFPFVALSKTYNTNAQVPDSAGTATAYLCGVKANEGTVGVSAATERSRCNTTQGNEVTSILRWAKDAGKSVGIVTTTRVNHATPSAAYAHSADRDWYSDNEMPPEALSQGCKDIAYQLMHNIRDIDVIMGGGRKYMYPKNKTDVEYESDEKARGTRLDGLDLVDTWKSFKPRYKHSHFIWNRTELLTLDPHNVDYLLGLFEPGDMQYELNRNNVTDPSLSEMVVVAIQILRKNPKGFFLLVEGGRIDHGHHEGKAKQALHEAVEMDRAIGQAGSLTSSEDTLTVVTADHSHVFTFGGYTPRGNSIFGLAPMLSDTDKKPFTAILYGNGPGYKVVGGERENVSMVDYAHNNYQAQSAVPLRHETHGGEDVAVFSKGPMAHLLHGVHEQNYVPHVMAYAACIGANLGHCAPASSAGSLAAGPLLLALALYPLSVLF

[12] = biological target: T5, Heat shock factor protein 1 (Mus musculus, UniProt P38532); assay: enhancement of HSF1-driven luciferase signal – cell-based, NIH3T3, luminescence, dose retest, confirmation (AID 435004); assay type: functional;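 further: stress induced by proteasome inhibitor MG132 added 30 min after compound; luciferase reporter driven by HSF1 response element in NIH3T3 cells; actives raise luminescence as potentiators of the MG132 stress response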
T5 sequence (P38532 whole entry): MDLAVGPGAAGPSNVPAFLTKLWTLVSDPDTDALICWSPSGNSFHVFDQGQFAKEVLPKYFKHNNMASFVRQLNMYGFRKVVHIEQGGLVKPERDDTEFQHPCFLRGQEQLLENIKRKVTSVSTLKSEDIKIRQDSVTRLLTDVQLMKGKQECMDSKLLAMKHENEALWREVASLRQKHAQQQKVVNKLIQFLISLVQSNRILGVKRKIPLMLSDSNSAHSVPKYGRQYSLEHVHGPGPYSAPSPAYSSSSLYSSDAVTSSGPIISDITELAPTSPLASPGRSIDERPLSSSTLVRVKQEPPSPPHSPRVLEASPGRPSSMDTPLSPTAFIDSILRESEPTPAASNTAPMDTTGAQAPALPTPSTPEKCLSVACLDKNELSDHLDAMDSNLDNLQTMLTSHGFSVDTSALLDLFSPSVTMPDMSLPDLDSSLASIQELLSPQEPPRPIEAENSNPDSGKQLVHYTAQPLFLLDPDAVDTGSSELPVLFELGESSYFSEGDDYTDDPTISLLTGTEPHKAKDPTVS

INS1 = assay: INS-1E survival protection against cytokine death – cell-based, luminescence, retest, dose response (AID 449756); assay type: functional; details: Rattus norvegicus;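 further: cell death triggered by IL-1 beta plus TNF-alpha plus IFN-gamma mixture; protective hits raise ATP signal compared with cytokine alone wells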
NS3 = NS3 (Hepatitis C virus, UniProt A3EZJ3); assay: PubChem AID 2173; design: species or system Hepacivirus hominis
Sequence of NS3 (A3EZJ3 whole entry): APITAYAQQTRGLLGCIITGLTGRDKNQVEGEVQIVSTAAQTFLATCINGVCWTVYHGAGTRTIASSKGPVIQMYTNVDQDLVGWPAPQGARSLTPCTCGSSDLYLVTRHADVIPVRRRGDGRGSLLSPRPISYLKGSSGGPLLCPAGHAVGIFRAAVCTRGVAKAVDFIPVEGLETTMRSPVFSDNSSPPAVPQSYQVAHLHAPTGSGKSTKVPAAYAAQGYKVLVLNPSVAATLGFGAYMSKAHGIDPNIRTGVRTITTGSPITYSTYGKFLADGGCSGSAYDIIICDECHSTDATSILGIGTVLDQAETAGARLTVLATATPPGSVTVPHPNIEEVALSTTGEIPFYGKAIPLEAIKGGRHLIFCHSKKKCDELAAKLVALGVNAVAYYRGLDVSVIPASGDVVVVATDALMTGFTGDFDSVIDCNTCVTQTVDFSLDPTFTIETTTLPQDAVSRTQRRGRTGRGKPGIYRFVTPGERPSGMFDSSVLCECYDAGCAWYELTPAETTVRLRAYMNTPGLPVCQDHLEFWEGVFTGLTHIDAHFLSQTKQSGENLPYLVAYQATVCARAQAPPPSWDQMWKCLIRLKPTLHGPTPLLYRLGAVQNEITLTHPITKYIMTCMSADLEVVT

[13] = viability of uninfected HEp-2 cells – cell-based, HTS, cytotoxicity control for RSV inhibitor project, dose response (AID 2410); assay type: functional; details: human respiratory syncytial virus
Large T antigen = Large T antigen (Simian virus 40, UniProt P03070); assay type: functional, Betapolyomavirus macacae;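 further: Confirmatory-stage PubChem screen for compounds that inhibit SV40 T antigen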
Sequence of Large T antigen (P03070 whole entry): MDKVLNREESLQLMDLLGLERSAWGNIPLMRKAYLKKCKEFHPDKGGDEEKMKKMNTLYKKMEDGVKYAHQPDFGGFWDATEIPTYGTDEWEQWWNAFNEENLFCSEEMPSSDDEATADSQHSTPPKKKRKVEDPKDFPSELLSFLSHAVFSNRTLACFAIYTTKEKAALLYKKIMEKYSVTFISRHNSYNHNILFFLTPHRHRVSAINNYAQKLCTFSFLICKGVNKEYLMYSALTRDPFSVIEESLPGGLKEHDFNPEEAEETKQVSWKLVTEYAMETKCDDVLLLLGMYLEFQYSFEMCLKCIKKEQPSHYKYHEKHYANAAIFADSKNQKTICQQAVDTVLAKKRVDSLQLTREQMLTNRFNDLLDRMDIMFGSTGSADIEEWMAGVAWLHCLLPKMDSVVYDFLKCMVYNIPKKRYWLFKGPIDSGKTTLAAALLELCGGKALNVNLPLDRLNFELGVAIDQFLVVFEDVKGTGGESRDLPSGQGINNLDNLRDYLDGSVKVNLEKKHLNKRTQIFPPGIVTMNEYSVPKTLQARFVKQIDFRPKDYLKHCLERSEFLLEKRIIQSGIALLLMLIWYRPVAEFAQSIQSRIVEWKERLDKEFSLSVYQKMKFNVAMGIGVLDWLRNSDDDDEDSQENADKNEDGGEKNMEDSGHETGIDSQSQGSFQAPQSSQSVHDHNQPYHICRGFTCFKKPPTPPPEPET

Vero [14] = assay: cells; assay type: functional; details: Chlorocebus sabaeus
[15] = NIH3T3 cell viability loss – ATP luminescence, mouse fibroblasts, counter-screen, dose response (AID 2010); assay type: functional, cell-based;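 further: cells exposed to compound for about 90 hours before reading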
Vero [16] = assay: cells; assay type: functional, cell-based; details: Chlorocebus sabaeus
[17] = biological target: G-protein coupled receptor 55 (Homo sapiens, UniProt Q9Y2T6); assay: selective activators of receptor GPR55 – imaging, U2OS cells, beta-arrestin-GFP redistribution, primary screen (AID 1961); assay type: functional
Sequence of G-protein coupled receptor 55 (Q9Y2T6 whole entry): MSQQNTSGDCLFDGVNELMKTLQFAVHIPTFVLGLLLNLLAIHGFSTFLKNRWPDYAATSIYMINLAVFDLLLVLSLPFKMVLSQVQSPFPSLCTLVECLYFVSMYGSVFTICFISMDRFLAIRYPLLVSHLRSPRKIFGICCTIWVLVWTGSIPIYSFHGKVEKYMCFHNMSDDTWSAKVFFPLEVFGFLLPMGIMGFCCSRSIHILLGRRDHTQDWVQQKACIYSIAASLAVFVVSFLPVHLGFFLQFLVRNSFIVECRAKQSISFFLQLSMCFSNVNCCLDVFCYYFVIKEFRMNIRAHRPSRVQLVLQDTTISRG

[18] = Trypanosoma cruzi growth suppression in host cells – NIH3T3 host cells, beta-gal luminescence, confirmation (AID 2044); assay type: functional, cell-based;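 further: intracellular parasites grown in NIH/3T3 mouse fibroblasts as host cells; luminescent beta-galactosidase reporter signal from transgenic T. cruzi replicating inside host cells; inhibitors lower the luminescence signal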
HT-1080 = assay: HT1080 cell viability loss – fluorescence readout (AID 620); assay type: functional, cell-based; details: Homo sapiens
[19] = biological target: Luciferin 4-monooxygenase (Photinus pyralis, UniProt P08659); assay: Counter Screen for Luciferase-based Assay Positives. [Related pubchem assays: 620, 618, 411 ]
Sequence of Luciferin 4-monooxygenase (P08659 whole entry): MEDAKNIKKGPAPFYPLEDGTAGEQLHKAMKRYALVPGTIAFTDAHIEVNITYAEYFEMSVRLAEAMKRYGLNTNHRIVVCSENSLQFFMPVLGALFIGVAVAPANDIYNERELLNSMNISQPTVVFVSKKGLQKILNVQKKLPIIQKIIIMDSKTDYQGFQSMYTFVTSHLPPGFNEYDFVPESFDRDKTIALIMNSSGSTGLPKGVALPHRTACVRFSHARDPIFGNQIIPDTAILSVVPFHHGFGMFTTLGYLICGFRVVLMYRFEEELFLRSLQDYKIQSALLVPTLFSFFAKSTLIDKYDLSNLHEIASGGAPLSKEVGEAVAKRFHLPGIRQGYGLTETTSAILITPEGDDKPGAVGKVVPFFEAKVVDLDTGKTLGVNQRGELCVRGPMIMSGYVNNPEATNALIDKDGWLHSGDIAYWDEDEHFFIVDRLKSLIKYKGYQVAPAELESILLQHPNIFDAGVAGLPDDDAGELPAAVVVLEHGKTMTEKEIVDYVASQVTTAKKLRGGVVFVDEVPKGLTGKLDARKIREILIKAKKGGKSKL

[20] = biological target: T6, Replicative DNA helicase DnaB (Mycobacterium tuberculosis, UniProt P9WMR3); assay: DnaB intein splicing inhibitors, dose response, biochemical, cell-free fluorescence (AID 449749); assay type: functional
T6 sequence (P9WMR3 whole entry): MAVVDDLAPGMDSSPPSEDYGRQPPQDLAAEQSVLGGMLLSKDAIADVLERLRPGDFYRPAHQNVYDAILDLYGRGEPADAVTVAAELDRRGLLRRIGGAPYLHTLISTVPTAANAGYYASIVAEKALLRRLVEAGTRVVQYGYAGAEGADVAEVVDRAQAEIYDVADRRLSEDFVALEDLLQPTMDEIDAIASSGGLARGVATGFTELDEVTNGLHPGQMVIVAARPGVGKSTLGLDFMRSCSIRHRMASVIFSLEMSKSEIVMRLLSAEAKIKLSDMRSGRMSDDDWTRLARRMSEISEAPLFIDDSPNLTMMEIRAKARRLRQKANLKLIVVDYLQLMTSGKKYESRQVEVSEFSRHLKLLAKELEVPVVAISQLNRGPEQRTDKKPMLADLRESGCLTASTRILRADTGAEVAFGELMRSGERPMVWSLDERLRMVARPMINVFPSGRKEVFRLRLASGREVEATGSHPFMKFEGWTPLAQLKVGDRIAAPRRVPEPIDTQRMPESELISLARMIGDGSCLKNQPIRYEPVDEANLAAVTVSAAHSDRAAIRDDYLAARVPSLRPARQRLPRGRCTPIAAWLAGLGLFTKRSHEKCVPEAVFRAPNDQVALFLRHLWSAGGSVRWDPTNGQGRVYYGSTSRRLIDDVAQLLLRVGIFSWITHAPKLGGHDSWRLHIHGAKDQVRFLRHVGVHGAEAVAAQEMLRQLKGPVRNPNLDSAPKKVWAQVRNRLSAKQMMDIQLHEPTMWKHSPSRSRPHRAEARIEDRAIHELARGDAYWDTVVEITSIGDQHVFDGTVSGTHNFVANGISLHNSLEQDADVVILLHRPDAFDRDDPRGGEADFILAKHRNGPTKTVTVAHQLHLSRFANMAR

Protein RecA = biological target: T7, Protein RecA (Mycobacterium tuberculosis, UniProt P9WHJ3); assay: Fluorescence Cell-Free Homogeneous Dose Retest to Identify Inhibitors of RecA-Intein Splicing Activity. [Related pubchem assays (depositor defined):AID2097, AID2223, AID489010, AID492950]; assay type: functional
T7 sequence (P9WHJ3 whole entry): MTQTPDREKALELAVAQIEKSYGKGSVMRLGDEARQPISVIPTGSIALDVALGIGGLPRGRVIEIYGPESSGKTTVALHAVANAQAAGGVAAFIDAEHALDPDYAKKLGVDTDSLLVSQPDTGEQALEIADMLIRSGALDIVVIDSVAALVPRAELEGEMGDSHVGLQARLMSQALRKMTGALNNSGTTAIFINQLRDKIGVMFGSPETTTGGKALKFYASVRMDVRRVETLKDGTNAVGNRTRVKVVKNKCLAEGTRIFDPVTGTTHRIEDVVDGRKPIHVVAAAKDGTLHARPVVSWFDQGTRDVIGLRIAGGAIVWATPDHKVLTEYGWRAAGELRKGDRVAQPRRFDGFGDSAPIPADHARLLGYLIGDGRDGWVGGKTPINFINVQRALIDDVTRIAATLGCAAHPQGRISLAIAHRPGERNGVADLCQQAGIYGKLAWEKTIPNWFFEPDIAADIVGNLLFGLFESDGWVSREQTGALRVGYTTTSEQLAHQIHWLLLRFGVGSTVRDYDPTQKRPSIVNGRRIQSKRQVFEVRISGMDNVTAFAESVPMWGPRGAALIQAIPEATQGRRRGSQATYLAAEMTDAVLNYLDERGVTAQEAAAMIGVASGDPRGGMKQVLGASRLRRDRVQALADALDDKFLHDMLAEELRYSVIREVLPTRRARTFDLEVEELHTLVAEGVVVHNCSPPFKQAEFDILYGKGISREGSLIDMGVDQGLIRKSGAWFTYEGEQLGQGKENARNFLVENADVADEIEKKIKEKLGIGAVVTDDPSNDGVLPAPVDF

Sequence of Hexokinase (Q38C41 whole entry): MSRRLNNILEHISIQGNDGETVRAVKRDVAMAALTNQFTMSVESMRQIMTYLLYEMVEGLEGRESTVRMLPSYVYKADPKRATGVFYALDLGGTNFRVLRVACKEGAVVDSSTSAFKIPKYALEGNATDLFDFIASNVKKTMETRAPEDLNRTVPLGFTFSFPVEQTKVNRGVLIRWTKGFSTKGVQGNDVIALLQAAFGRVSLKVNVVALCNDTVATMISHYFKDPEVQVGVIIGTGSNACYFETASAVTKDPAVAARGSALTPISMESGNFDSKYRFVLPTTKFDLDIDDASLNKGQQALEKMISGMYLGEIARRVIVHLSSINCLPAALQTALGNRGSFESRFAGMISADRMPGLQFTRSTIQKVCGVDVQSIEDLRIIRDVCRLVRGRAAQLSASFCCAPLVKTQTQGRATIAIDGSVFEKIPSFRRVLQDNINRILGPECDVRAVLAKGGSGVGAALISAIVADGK

O=c1s[nH]c2ccccc12
IC50 (Hexokinase): > 25 µM (inactive)

c1ccc(C[C@H]2CNCCN2CCCCC2CCCCC2)cc1
CC50 [1]: 12.2 µM (active)
IC50 [2]: > 20 µM (inactive)
CC50 [3]: 18.1 µM (active)
CC50 [4]: 13.9 µM (active)
AC50 [5]: 7.01 µM (active)
IC50 (cells): 27.4 µM (active)

CCc1nc(NCC(C)C)c(C#N)c2c1COC(C)(C)C2
Absolute IC50 (XBP1) (X-box-binding protein 1): 10 µM
Absolute IC50 (CHOP) [6]: 10 µM

O=C(O)CCc1ccc(-c2cccs2)n1Cc1ccco1
AC50 (CAAX prenyl protease 2): 2.57 µM (active)

CCOC(=O)c1cc2c(=O)n3cccc(C)c3nc2n(Cc2ccco2)/c1=N/C(=O)c1ccccc1
IC50 [7]: > 100 µM (inactive)
IC50 [8]: 13.1 µM (active)

COc1cc2c(cc1NC(=O)c1cc(-c3cccnc3)nc3ccc(C)cc13)oc1ccccc12
AC50 (Cytochrome P450 2C9): 2.51 µM (inconclusive)
EC50 [9]: > 100 µM (inactive)

CCc1ccc(C2C3=C(O)CC(C)(C)CC3=Nc3c2c(O)nc2nc(C)nn32)cc1 (stereo unspecified)
IC50 [7]: 31.2 µM (active)
IC50 [8]: 3.68 µM (active)

Oc1ccc(Cl)cc1C1=NNC(c2cccs2)C1 (stereo unspecified)
CC50 [1]: > 20 µM (active)
CC50 [3]: > 20 µM (active)
CC50 [4]: 22.6 µM (active)
IC50 (cells): 44.6 µM (active)

COc1ccc(C(=O)O)c(NC(=O)c2ccc(Cl)cc2)c1
IC50 (Hexokinase): > 25 µM (inactive)

COC(=O)c1cc(-c2ccc(Cl)c(Cl)c2Cl)n[nH]1
IC50 [10]: > 10 µM (inconclusive)
IC50 [11]: 0.24 µM (active)

Cc1ccc(N2C(=O)NC(=O)/C(=C\C=C\c3ccco3)C2=O)cc1C
EC50 [12]: 4.85 µM (active)
AC50 (INS1): 4.83 µM (active)
IC50 (NS3): 14.4 µM (not active)
Absolute IC50 (CHOP) [6]: 10 µM
CC50 [13]: > 50 µM (active)
IC50 (Large T antigen): 16.4 µM (active)

CCOC(=O)/C(=C\c1ccccc1)C(=O)c1cc(C(C)=O)c(Nc2ccccc2)s1
CC50 (Vero [14]): 14.8 µM (active)
EC50 [15]: 6.8 µM (active)
AC50 (INS1): 5.42 µM (active)
IC50 (Vero [16]): > 25 µM (active)
EC50 [17]: 1.06 µM (active)
EC50 [18]: 2.35 µM (active)
EC50 (HT-1080): 20.3 µM (active)
EC50 [19]: < 0.2 µM (active)

CCOC(=O)c1c(NC(=S)N2CCCCC2)sc2c1CCN(C(=O)OCC)C2
AC50 [20]: 3.64 µM (active)
EC50 [12]: 12.3 µM (active)
EC50 (Protein RecA): 12.7 µM (active)
EC50 [17]: 5.41 µM (active)
